# Assay results from patent US9783536B2, “Nitrogen-containing heterocyclic compound or salt thereof” (FUJIFILM Corporation, priority 2013, dated 2017).
# Where two headings read alike, the source gives them in different places.
# What was measured:
# human PI3Kα protein = biological target: T1, human PI3Kα protein (Homo sapiens, UniProt P42336); experiment: PI3Kα enzyme assay (ADP-Glo); type: biochemical; settings: read-out: PI3Kα enzyme inhibitory activity
# T1 construct: purchased Carna Biosciences, Inc; host or cells: baculovirus expression system
# T1 sequence (P42336 whole entry): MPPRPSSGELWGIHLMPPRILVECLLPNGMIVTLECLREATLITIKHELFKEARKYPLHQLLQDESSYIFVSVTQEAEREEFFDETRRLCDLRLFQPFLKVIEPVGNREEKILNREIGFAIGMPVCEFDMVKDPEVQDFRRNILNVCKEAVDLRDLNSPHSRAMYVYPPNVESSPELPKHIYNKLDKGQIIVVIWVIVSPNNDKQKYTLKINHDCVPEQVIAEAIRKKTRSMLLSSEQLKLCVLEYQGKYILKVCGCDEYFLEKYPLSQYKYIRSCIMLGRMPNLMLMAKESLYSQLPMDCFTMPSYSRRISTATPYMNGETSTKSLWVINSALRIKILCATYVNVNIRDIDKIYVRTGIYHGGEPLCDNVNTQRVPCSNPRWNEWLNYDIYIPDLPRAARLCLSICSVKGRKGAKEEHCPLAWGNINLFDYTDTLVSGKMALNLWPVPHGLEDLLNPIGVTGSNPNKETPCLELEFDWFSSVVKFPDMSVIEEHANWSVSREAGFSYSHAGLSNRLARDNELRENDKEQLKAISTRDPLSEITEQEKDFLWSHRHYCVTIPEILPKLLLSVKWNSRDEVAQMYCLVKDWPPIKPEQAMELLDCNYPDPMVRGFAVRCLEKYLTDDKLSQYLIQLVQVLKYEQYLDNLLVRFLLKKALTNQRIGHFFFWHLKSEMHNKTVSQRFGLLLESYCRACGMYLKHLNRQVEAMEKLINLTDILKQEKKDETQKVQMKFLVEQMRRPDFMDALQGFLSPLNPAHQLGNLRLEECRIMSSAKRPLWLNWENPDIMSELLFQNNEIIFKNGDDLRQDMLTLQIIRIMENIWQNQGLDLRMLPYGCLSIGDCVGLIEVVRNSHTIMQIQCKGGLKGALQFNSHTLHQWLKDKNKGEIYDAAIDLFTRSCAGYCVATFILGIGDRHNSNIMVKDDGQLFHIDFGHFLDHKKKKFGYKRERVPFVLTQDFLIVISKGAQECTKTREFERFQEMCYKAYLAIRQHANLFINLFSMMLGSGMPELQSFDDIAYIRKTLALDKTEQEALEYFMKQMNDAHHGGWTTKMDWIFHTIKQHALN
# T1 sequence (P27986 whole entry partner): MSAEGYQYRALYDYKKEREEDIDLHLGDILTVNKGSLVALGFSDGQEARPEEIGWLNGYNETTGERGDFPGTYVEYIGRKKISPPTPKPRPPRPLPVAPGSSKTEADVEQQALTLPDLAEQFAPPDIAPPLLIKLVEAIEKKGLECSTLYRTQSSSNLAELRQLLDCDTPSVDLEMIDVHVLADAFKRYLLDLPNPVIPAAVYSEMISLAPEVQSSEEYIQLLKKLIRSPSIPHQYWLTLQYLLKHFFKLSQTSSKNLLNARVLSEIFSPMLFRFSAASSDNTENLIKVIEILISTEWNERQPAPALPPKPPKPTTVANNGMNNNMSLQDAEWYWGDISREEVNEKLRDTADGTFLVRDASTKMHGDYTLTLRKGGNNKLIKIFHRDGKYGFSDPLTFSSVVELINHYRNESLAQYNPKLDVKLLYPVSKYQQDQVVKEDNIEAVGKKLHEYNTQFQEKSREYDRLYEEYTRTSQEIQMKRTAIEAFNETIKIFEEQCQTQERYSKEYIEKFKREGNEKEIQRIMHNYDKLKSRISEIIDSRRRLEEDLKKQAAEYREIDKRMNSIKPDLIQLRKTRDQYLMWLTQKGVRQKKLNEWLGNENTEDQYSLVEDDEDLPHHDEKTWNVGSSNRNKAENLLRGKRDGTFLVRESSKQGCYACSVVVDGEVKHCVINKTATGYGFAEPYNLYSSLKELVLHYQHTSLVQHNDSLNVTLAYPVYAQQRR
# Procedure, shortened: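 Biotinylated human PI3Kα (baculovirus-expressed, 4.5 nmol/L) pre-incubated 15 min with compound in Tris-HCl pH 7.5, MgCl2, BSA; reaction 60 min at 25° C with 50 μmol/L PIP2 and 100 μmol/L ATP final. ADP quantified by ADP-Glo luminescence; IC50 calculated.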
# [1] = biological target: T2, GST fusion human ERK2 protein (Homo sapiens, UniProt P28482); experiment: ERK2 enzyme assay (2); type: biochemical; settings: ERK2 enzyme assay (2); read-out: ERK2 enzyme inhibitory activity (2)
# T2 construct: purchased Carna Biosciences, Inc; host or cells: E. coli expression system
# T2 sequence (P28482 whole entry, the tested form may be a part): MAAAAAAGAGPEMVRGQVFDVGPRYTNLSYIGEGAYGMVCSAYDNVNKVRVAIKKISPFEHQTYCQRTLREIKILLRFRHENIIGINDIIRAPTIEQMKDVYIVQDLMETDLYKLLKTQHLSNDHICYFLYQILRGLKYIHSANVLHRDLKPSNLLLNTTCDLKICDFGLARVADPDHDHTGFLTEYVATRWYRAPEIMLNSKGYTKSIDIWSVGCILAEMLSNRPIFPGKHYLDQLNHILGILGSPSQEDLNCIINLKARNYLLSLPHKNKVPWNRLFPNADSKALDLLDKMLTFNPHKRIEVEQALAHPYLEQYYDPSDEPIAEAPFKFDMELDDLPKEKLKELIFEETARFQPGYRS
# Procedure, shortened: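 IC50 values come from mobility-shift measurement of phosphorylated versus unphosphorylated 5-FAM peptide substrate after EDTA quench. Beforehand, compound and 1.25 nmol/L E. coli-expressed GST–human ERK2 stood 15 min at room temperature (pH 7.5), then 1 mmol/L ATP and 4.25 μmol/L substrate (final) were added for 120 min at 25 °C.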
# CHO-K1 cells = experiment: CHO cell toxicity test; type: cell-based, Chinese hamster; settings: Cricetulus griseus, read-out: IC50 value (concentration at which the number of viable cells was suppressed to 50% or less)
# Method: In a CHO cell toxicity test, the following was used.
# Cell: CHO-K1 cells (derived from Chinese hamster ovary) Test medium: F-12 MEDIUM+FCS (manufactured by Biowest) having a final concentration of 2%
# Detection reagent: CELLTITER-GLO™ LUMINESCENT CELL VIABILITY ASSAY (trade name, manufactured by PROMEGA Corporation)
# The CHO-K1 cells were seeded in a 96-well microplate for culture at 5,000 cells/well, and cultured in a CO2 incubator (37° C.) for 24 hours. An evaluation compound (final concentration: from 25.00 μmol/L to 0.20 μmol/L, common ratio: […]) was added thereto, followed by culturing for 24 hours, and the number of viable cells was calculated from emission intensity by CELLTITER-GLO™ (trade name, manufactured by PROMEGA Corporation). In the measurement of the emission intensity, VARIOSKAN FLASH (manufactured by Thermo Fisher Scientific Inc.) was used.
# Inhibition ratio (%)=100−(A/B)×100
# A: Emission intensity in the presence of a test compound
# B: Emission intensity in the absence of a test compound
# [2] = CHO-K1 cells, 24 hours culture with compound, CellTiter-Glo
SMILES,IC50 (human PI3Kα protein) [µM],IC50 [1] [µM],IC50 (CHO-K1 cells; [2]) [µM],"IC50 (CHO-K1 cells; CHO-K1, 24 h) [µM]"
"CC(C)c1cnnc(Nc2ccc3ncc(-c4cnn(CCCN5CC6CCC(C5)O6)c4)cc3n2)c1 [Example 0653, 7-(1-(3-(8-Oxa-3-azabicyclo[3.2.1]octan-3-yl)propyl)-1H-pyrazol-4-yl)-N-(5-isopropylpyridazin-3-yl)-1,5-naphthyridine-2-amine]",< 1,< 1,≥ 25,
CC(C)c1cnnc(Nc2ccc3ncc(-c4cnn(CC(F)(F)F)c4)cc3n2)c1 [Example 0460],< 1,< 1,≥ 25,
"CC(C)c1cnnc(Nc2ccc3ncc(-c4cn(C)nc4CF)cc3n2)c1 [Example 0626, 7-(3-(Fluoromethyl)-1-methyl-1H-pyrazol-4-yl)-N-(5-isopropylpyridazin-3-yl)-1,5-naphthyridine-2-amine]",< 1,< 1,≥ 25,
CC(C)c1cnnc(Nc2ccc3ncc(-c4cnn(CCCN5CCOC[C@H]5C)c4)cc3n2)c1 [Example 0649],< 1,< 1,≥ 25,
CC(C)c1cnnc(Nc2ccc3ncc(-c4cnn(CCCN5C6CCC5COC6)c4)cc3n2)c1 [Example 0651],< 1,< 1,≥ 25,
CC(C)c1cnnc(Nc2ccc3ncc(-c4cnn(C5CCN(S(C)(=O)=O)CC5)c4)cc3n2)c1 [Example 0479],< 1,< 1,≥ 25,
CC(C)c1cnnc(Nc2ccc3ncc(-c4cn(C)nc4-c4ccncc4)cc3n2)c1 [Example 0552],< 1,< 1,≥ 25,
COc1ccc(-c2nn(C)cc2-c2cnc3ccc(Nc4cc(C(C)C)cnn4)nc3c2)cn1 [Example 0456],< 1,< 1,≥ 25,
CC(C)c1cnnc(Nc2ccc3ncc(-c4cnn(CCCN5C[C@@H](C)O[C@H](C)C5)c4)cc3n2)c1 [Example 0614],< 1,< 1,≥ 25,
"COC(CN1CCCC1)Cn1cc(-c2cnc3ccc(Nc4cc(C(C)C)cnn4)nc3c2)cn1 (stereo not drawn) [Example 0725, N-(5-isopropylpyridazin-3-yl)-7-(1-(2-methoxy-3-(pyrrolidin-1-yl)propyl)-1H-pyrazol-4-yl)-1,5-naphthyridine-2-amine]",< 1,< 1,≥ 25,
CC(C)c1cnnc(Nc2ccc3ncc(-c4cnn(CCCN5CCSCC5)c4)cc3n2)c1 [Example 0420],< 1,< 1,≥ 25,
CC(C)c1cnnc(Nc2ccc3ncc(-c4cnn(CC5CN(C)C5)c4)cc3n2)c1 [Example 0491],< 1,< 1,≥ 25,
CC(=O)c1ccc(Cn2cc(-c3cnc4ccc(Nc5cc(C(C)C)cnn5)nc4c3)cn2)cc1 [Example 0795],< 1,< 1,≥ 25,
Cc1ncccc1-c1nn(C)cc1-c1cnc2ccc(Nc3cc(C(C)C)cnn3)nc2c1 [Example 0737],< 1,< 1,≥ 25,
CC(C)c1cnnc(Nc2ccc3ncc(-c4cnn(CCCN5CCO[C@@H](C)C5)c4)cc3n2)c1 [Example 0644],< 1,< 1,≥ 25,
CC(C)c1cnnc(Nc2ccc3ncc(-c4cnn(CCCN5CC(C#N)C5)c4)cc3n2)c1 [Example 0686],< 1,< 1,≥ 25,
"CC(C)c1cnnc(Nc2ccc3ncc(-c4cnn(CC5CN(S(C)(=O)=O)C5)c4)cc3n2)c1 [Example 0572, N-(5-isopropylpyridazin-3-yl)-7-(1-((1-(methylsulfonyl)azetidin-3-yl)methyl)-1H-pyrazol-4-yl)-1,5-naphthyridine-2-amine]",< 1,< 1,≥ 25,
"FC(F)(F)Cn1cc(-c2cnc3ccc(Nc4cc(C5CC5)cnn4)nc3c2)cn1 [Example 0465, N-(5-cyclopropylpyridazin-3-yl)-7-(1-(2,2,2-trifluoroethyl)-1H-pyrazol-4-yl)-1,5-naphthyridine-2-amine]",< 1,< 1,≥ 25,

SMILES,IC50 (human PI3Kα protein) [µM],IC50 [1] [µM],IC50 (CHO-K1 cells; [2]) [µM],"IC50 (CHO-K1 cells; CHO-K1, 24 h) [µM]"
CC(C)c1cnnc(Nc2ccc3ncc(-c4cnn(CCCN5CCOC[C@@H]5C)c4)cc3n2)c1 [Example 0650],< 1,< 1,≥ 25,
CC(C)c1cnnc(Nc2ccc3ncc(-c4cnn([C@@H]5CCN(C)C5)c4)cc3n2)c1 [Example 0493],< 1,< 1,≥ 25,
CCN(CC)c1cnnc(Nc2ccc3ncc(-c4cnn(C)c4)cc3n2)c1 [Example 0517],< 1,< 1,≥ 25,
"CC(C)c1cnnc(Nc2ccc3ncc(-c4cnn(CCCN5CC(F)C5)c4)cc3n2)c1 [Example 0694, 7-(1-(3-(3-Fluoroazetidin-1-yl)propyl)-1H-pyrazol-4-yl)-N-(5-isopropylpyridazin-3-yl)-1,5-naphthyridine-2-amine]",< 1,< 1,≥ 25,
CC(C)c1cnnc(Nc2ccc3ncc(-c4cnn(CCCN5CCOCC5=O)c4)cc3n2)c1 [Example 0424],< 1,< 1,,≥ 25
"CC(C)c1cnnc(Nc2ccc3ncc(-n4ccnc4)cc3n2)c1 [Example 0510, 7-(1H-imidazol-1-yl)-N-(5-isopropylpyridazin-3-yl)-1,5-naphthyridine-2-amine]",1 to 10,< 1,≥ 25,
CC(C)c1cnnc(Nc2ccc3ncc(-c4cnn([C@H]5CCN(C)C5)c4)cc3n2)c1 [Example 0492],< 1,< 1,≥ 25,
"CNC(=O)C1CN(CCCn2cc(-c3cnc4ccc(Nc5cc(C(C)C)cnn5)nc4c3)cn2)C1 [Example 0687, 1-(3-(4-(6-((5-Isopropylpyridazin-3-yl)amino)-1,5-naphthyridin-3-yl)-1H-pyrazol-1-yl)propyl)-N-methylazetidine-3-carboxamide]",< 1,< 1,≥ 25,
"CC(C)c1cnnc(Nc2ccc3ncc(-c4cnn(CCCN5CCN(C)C(=O)C5)c4)cc3n2)c1 [Example 0723, 4-(3-(4-(6-((5-isopropylpyridazin-3-yl)amino)-1,5-naphthyridin-3-yl)-1H-pyrazol-1-yl)propyl)-1-methylpiperazin-2-one]",< 1,< 1,≥ 25,
CCc1nn(C)cc1-c1cnc2ccc(Nc3cc(C(C)C)cnn3)nc2c1 [Example 0761],< 1,< 1,≥ 25,
CC(C)c1cnnc(Nc2ccc3ncc(-c4cnn(CCCN5CC(O)C5)c4)cc3n2)c1 [Example 0629],< 1,< 1,≥ 25,
CC(C)c1cnnc(Nc2ccc3ncc(-c4cnn(CCCN5CC6(COC6)C5)c4)cc3n2)c1 [Example 0613],< 1,< 1,≥ 25,
"CCc1cnnc(Nc2ccc3ncc(-c4cn(C)nc4C)cc3n2)c1 [Example 0756, 7-(1,3-Dimethyl-1H-pyrazol-4-yl)-N-(5-ethylpyridazin-3-yl)-1,5-naphthyridine-2-amine]",< 1,< 1,≥ 25,
"CC(C)c1cnnc(Nc2ccc3ncc(-c4cnn(C[C@@H]5CCC(=O)N5C)c4)cc3n2)c1 [Example 0557, (S)-5-((4-(6-((5-isopropylpyridazin-3-yl)amino)-1,5-naphthyridin-3-yl)-1H-pyrazol-1-yl)methyl)-1-methylpyrrolidin-2-one]",< 1,< 1,≥ 25,
CC(C)c1cnnc(Nc2ccc3ncc(-c4cnn(CCCN5[C@H](C)CCC[C@@H]5C)c4)cc3n2)c1 [Example 0432],< 1,< 1,≥ 25,
CC(C)c1cnnc(Nc2ccc3ncc(-c4cnn(CCCN5CCOC(CO)C5)c4)cc3n2)c1 (stereo not drawn) [Example 0678],< 1,< 1,≥ 25,
"CC(=O)NC1CN(CCCn2cc(-c3cnc4ccc(Nc5cc(C(C)C)cnn5)nc4c3)cn2)C1 [Example 0682, N-(1-(3-(4-(6-((5-isopropylpyridazin-3-yl)amino)-1,5-naphthyridin-3-yl)-1H-pyrazol-1-yl)propyl)azetidin-3-yl)acetamide]",< 1,< 1,≥ 25,
